Here are results for 20 compounds from US12084472B2 (Ardelyx, Inc., priority 2015, dated 2024).

This test addresses T1, human TGR5 (Homo sapiens, UniProt Q8TDU6).
T1 construct: expressed in transfected cells; host or cells: HEK293
T1 sequence (Q8TDU6 1-330): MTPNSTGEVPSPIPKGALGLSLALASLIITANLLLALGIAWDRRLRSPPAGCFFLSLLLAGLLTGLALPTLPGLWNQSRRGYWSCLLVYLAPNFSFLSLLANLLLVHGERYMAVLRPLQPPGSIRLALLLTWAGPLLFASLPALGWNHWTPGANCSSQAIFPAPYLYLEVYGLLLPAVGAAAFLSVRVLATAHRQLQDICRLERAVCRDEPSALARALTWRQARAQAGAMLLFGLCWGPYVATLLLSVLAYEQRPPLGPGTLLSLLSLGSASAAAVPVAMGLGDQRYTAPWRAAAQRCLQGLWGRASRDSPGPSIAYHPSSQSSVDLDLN
Kind of test: Cell-based TGR5 assay (cAMP generation, HTRF). As to conditions: HEK293 cells stably transfected with human TGR5; cAMP by HTRF; 30 minutes at 37° C.; read-out: pEC50 Human TGR5 (converted). Summed up:
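Read-out was HTRF detection of cAMP, converted to concentration via a standard curve and fitted (3-parameter logistic) for pEC50 and maximal response. Agonist stimulation used HEK293 cells stably transfected with human TGR5, incubated 30 min at 37° C in IBMX-containing buffer at 0.05 nM to 10 μM compound.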
Background: TR-FRET usually uses a lanthanide donor and a delayed reading to cut background.
In the case of `N[C@@H]1[C@@H](O)[C@@H](O[C@@H]2[C@@H](O)[C@H](O[C@H]3O[C@H](CNC(=O)CCCCc4cc(Cl)c(COC5(c6cnccc6-c6ccccc6OC6CC6)CC5)cc4Cl)[C@@H](O)[C@H](O)[C@H]3O)[C@@H](N)C[C@H]2N)O[C@H](CO)[C@H]1O` (stereo in doubt) [Compound I-181, N-{[(2R,3S,4S,5R,6R)-6-{[(1R,2R,3S,4R,6S)-4,6-diamino-3-{[(2S,3R,4S,5S,6R)-4-amino-3,5-dihydroxy-6-(hydroxymethyl)oxan-2-yl]oxy}-2-hydroxycyclohexyl]oxy}-3,4,5-trihydroxyoxan-2-yl]methyl}-5-[2,5-dichloro-4-({1-[4-(2-cyclopropoxyphenyl)pyridin-3-yl]cyclopropoxy}methyl)phenyl]pentanamide], the EC50 was below 100 nM.

For `CCOc1cc(F)c(F)cc1-c1ccncc1C1(NCc2cc(Cl)ccc2Cl)CC1` [Compound I-15, N-[(2,5-dichlorophenyl)methyl]-1-[4-(2-ethoxy-4,5-difluorophenyl)pyridin-3-yl]cyclopropan-1-amine], the EC50 is 126 to 1000 nM.

For the compound `CC(CCCCN(CCOCCO)C(=O)[C@@H](O)[C@@H](O)[C@H](O)[C@@H](O)CO)c1ccc(Cl)c(CNC2(c3cnccc3-c3ccccc3OC3CC3)CC2)c1` (stereo partly drawn) [Compound I-288, (2S,3S,4R,5S)-N-(5-{4-chloro-3-[({1-[4-(2-cyclopropoxyphenyl)pyridin-3-yl]cyclopropyl}amino)methyl]phenyl}hexyl)-2,3,4,5,6-pentahydroxy-N-[2-(2-hydroxyethoxy)ethyl]hexanamide], the EC50 was below 100 nM.

As to `COCCN(C[C@@H](O)[C@H](O)[C@@H](O)[C@@H](O)CO)C(=O)CCCC(C)c1ccc(Cl)c(CNC2(c3cnccc3-c3ccccc3OC3CC3)CC2)c1` (stereo partly drawn) [Compound I-333, 5-{4-chloro-3-[({1-[4-(2-cyclopropoxyphenyl)pyridin-3-yl]cyclopropyl}amino)methyl]phenyl}-N-(2-methoxyethyl)-N-[(2R,3S,4S,5S)-2,3,4,5,6-pentahydroxyhexyl]hexanamide], the EC50 was below 100 nM.

With `CC(CCCC(=O)N(CCS(=O)(=O)N(C)C)C[C@H](O)[C@@H](O)[C@H](O)[C@H](O)CO)c1ccc(Cl)c(CNC2(c3cnccc3-c3ccccc3OC3CC3)CC2)c1` (stereo partly drawn) [Compound I-348, 5-{4-chloro-3-[({1-[4-(2-cyclopropoxyphenyl)pyridin-3-yl]cyclopropyl}amino)methyl]phenyl}-N-[2-(dimethylsulfamoyl)ethyl]-N-[(2S,3R,4R,5R)-2,3,4,5,6-pentahydroxyhexyl]hexanamide], the EC50 is below 100 nM.

On to `CC(=O)NCCN(CCCCSc1ccc(Cl)c(COC2(c3cnccc3-c3ccccc3OC3CC3)CC2)c1)C(=O)[C@@H](O)[C@@H](O)[C@H](O)[C@@H](O)CO` [Compound I-564, (2S,3S,4R,5S)-N-(4-{[4-chloro-3-({1-[4-(2-cyclopropoxyphenyl)pyridin-3-yl]cyclopropoxy}methyl)phenyl]sulfanyl}butyl)-N-(2-acetamidoethyl)-2,3,4,5,6-pentahydroxyhexanamide], for which the EC50 is below 100 nM.

`O=C([C@H](O)[C@@H](O)[C@H](O)[C@H](O)CO)N(CCCCO)CCCCc1cc(Cl)c(COC2(c3cnccc3-c3ccccc3OC3CC3)CC2)cc1Cl` [Compound I-81, (2R,3S,4R,5R)-N-(4-(2,5-dichloro-4-((1-(4-(2-cyclopropoxyphenyl)pyridin-3-yl)cyclopropoxy)methyl)phenyl)butyl)-2,3,4,5,6-pentahydroxy-N-(4-hydroxybutyl)hexanamide]: the EC50 is below 100 nM.

In the case of `COCCN(CCCCCNC(=O)NC[C@H](O)[C@@H](O)[C@H](O)[C@H](O)CO)S(=O)(=O)c1ccc(Cl)c(COC2(c3cnccc3-c3ccccc3OC3CC3)CC2)c1` [Compound I-412, 1-{5-[N-(2-methoxyethyl)4-chloro-3-({1-[4-(2-cyclopropoxyphenyl)pyridin-3-yl]cyclopropoxy}methyl)benzenesulfonamido]pentyl}-3-[(2S,3R,4R,5R)-2,3,4,5,6-pentahydroxyhexyl]urea], the EC50 was below 100 nM.

With `CCS(=O)(=O)CCN(CCCCCSc1ccc(Cl)c(COC2(c3cnccc3-c3ccccc3OC3CC3)CC2)c1)C(=O)[C@@H](O)[C@@H](O)[C@H](O)[C@@H](O)CO` [Compound I-604, (2S,3S,4R,5S)-N-(5-{[4-chloro-3-({1-[4-(2-cyclopropoxyphenyl)pyridin-3-yl]cyclopropoxy}methyl)phenyl]sulfanyl}pentyl)-N-[2-(ethanesulfonyl)ethyl]-2,3,4,5,6-pentahydroxyhexanamide], the EC50 was below 100 nM.

In the case of `CCS(=O)(=O)CCN(CCCC(C)c1ccc(C)c(CNC2(c3cnccc3-c3ccccc3OC3CC3)CC2)c1)C(=O)[C@@H](O)[C@@H](O)[C@H](O)[C@@H](O)CO` (stereo partly drawn) [Compound I-307, (2S,3S,4R,5S)-N-(4-{3-[({1-[4-(2-cyclopropoxyphenyl)pyridin-3-yl]cyclopropyl}amino)methyl]-4-methylphenyl}pentyl)-N-[2-(ethanesulfonyl)ethyl]-2,3,4,5,6-pentahydroxyhexanamide], the EC50 is below 100 nM.

As to `Cc1ccc(C(C)CCCC(=O)N(CCO)C[C@H](O)[C@@H](O)[C@H](O)[C@H](O)CO)cc1COC1(c2cnccc2-c2ccccc2OC2CC2)CC1` (stereo partly drawn) [Compound I-376, 5-[3-({1-[4-(2-cyclopropoxyphenyl)pyridin-3-yl]cyclopropoxy}methyl)-4-methylphenyl]-N-(2-hydroxyethyl)-N-[(2S,3R,4R,5R)-2,3,4,5,6-pentahydroxyhexyl]hexanamide], the EC50 was below 100 nM.

As for `Cc1ccc([C@@H](C)CCCC(=O)N(CCS(C)(=O)=O)C[C@H](O)[C@@H](O)[C@H](O)[C@H](O)CO)cc1CNC1(c2cnccc2-c2ccccc2OC2CC2)CC1` (single isomer, unassigned) [Compound I-367], the EC50 is below 100 nM.

With `O=C(CCCCc1cc(Cl)c(COC2(c3cnccc3-c3ccccc3OC3CC3)CC2)cc1Cl)N(C[C@H](O)[C@@H](O)[C@H](O)[C@H](O)CO)C1CCOCC1` [Compound I-131, 5-[2,5-dichloro-4-({1-[4-(2-cyclopropoxyphenyl)pyridin-3-yl]cyclopropoxy}methyl)phenyl]-N-(oxan-4-yl)-N-[(2S,3R,4R,5R)-2,3,4,5,6-pentahydroxyhexyl]pentanamide], the EC50 was below 100 nM.

With `Cc1cc(COC2(c3cnccc3-c3ccccc3OC3CC3)CC2)c(Cl)cc1CCCCN(CCCCCO)C(=O)NC[C@H](O)[C@@H](O)[C@H](O)[C@H](O)CO` [Compound I-118, 1-{4-[5-chloro-4-({1-[4-(2-cyclopropoxyphenyl)pyridin-3-yl]cyclopropoxy}methyl)-2-methylphenyl]butyl}-1-(5-hydroxypentyl)-3-[(2S,3R,4R,5R)-2,3,4,5,6-pentahydroxyhexyl]urea], the EC50 was below 100 nM.

For the compound `O=C(CCCCc1cc(Cl)c(COC2(c3cnccc3-c3ccccc3OC3CC3)CC2)cc1Cl)NC[C@H](O)[C@@H](O)[C@H](O)[C@H](O)CO` [Compound I-135, 5-[2,5-dichloro-4-({1-[4-(2-cyclopropoxyphenyl)pyridin-3-yl]cyclopropoxy}methyl)phenyl]-N-[(2S,3R,4R,5R)-2,3,4,5,6-pentahydroxyhexyl]pentanamide], the EC50 was below 100 nM.

For `O=C(NCCOCCS(=O)(=O)c1ccc(Cl)c(COC2(c3cnccc3-c3ccccc3OC3CC3)CC2)c1)NC[C@H](O)[C@@H](O)[C@H](O)[C@H](O)CO` [Compound I-492, 1-[2-(2-[[4-Chloro-3-([l-[4-(2-cyclopropoxyphenyl)pyridin-3-yl]cyclopropoxy]methyl)benzene]sulfonyl]ethoxy)ethyl]-3-[(2S,3R,4R,5R)-2,3,4,5,6-pentahydroxyhexyl]urea], the EC50 is below 100 nM.

With `O=C(NCCCCCSc1ccc(Cl)c(COC2(c3cnccc3-c3ccccc3OC3CC3)CC2)c1)N[C@H]1CC[C@@H](NC(=O)NC[C@H](O)[C@@H](O)[C@H](O)[C@H](O)CO)CC1` [Compound I-634, 1-(5-{[4-chloro-3-({1-[4-(2-cyclopropoxyphenyl)pyridin-3-yl]cyclopropoxy}methyl)phenyl]sulfanyl}pentyl)-3-[(1s,4s)-4-({[(2S,3R,4R,5R)-2,3,4,5,6-pentahydroxyhexyl]carbamoyl}amino)cyclohexyl]urea], the EC50 is below 100 nM.

Take `O=C([C@@H](O)[C@@H](O)[C@H](O)[C@@H](O)CO)N(CCCCSc1ccc(Cl)c(COC2(c3cnccc3-c3ccccc3OC3CC3)CC2)c1)CCN1CCS(=O)(=O)CC1` [Compound I-524, (2S,3S,4R,5S)-N-(4-{[4-chloro-3-({1-[4-(2-cyclopropoxyphenyl)pyridin-3-yl]cyclopropoxy}methyl)phenyl]sulfanyl}butyl)-N-[2-(1,1-dioxo-1λ^6,4-thiomorpholin-4-yl)ethyl]-2,3,4,5,6-pentahydroxyhexanamide]: the EC50 was 126 to 1000 nM.

With `Cc1cc(COC2(c3cnccc3-c3ccccc3OC3CC3)CC2)c(Cl)cc1CCCCN(C)C(=O)NC[C@H](O)[C@@H](O)[C@H](O)[C@H](O)CO` [Compound I-115, 1-{4-[5-chloro-4-({1-[4-(2-cyclopropoxyphenyl)pyridin-3-yl]cyclopropoxy}methyl)-2-methylphenyl]butyl}-1-methyl-3-[(2S,3R,4R,5R)-2,3,4,5,6-pentahydroxyhexyl]urea], the EC50 is below 100 nM.

As to `CN(C)S(=O)(=O)c1cc(COC2(c3cnccc3-c3ccccc3OC3CC3)CC2)c(Cl)cc1O` [Compound I-731, 4-chloro-5-([1-[4-(2-cyclopropoxyphenyl)pyridin-3-yl]cyclopropoxy]methyl)-2-hydroxy-N,N-dimethylbenzene-1-sulfonamide], the EC50 is below 100 nM.
